Among the data in patent US8623879B2, “1-heterocyclyl-1,5-dihydro-pyrazolo[3,4-D] pyrimidin-4-one derivates and their use as PDE9A modulators” (Boehringer Ingelheim International GmbH, priority 2008, dated 2014) are inhibition and IC50 values, retold here.

Usually IC50 stands for the midpoint of a concentration-inhibition curve.

The target in this assay is T1, human PDE9A2 (Homo sapiens, UniProt O76083).
T1 construct: made in house; host or cells: Sf9 insect cells (infected); crude lysate used as enzyme source
T1 sequence (O76083 1-533 isoform O76083-2): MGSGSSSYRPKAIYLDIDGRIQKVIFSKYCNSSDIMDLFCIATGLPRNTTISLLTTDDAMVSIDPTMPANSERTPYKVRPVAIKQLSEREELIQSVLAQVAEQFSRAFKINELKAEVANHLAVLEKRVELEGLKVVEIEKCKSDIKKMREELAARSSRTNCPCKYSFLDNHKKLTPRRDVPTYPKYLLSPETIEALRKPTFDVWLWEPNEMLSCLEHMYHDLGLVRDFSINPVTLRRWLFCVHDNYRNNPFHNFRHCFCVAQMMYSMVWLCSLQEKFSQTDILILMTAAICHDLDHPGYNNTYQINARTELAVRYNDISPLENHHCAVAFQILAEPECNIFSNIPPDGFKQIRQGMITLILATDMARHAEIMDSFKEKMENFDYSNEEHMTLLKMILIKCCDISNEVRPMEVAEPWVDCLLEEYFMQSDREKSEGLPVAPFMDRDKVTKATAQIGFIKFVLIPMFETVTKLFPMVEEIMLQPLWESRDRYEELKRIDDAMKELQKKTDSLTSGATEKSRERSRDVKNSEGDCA
The assay is described as follows: PDE9A2 enzymatic activity assay (scintillation proximity assay, SPA). In kind it is biochemical. The conditions noted are these: for inhibition at 10 µM: read-out: % inhibition of PDE9A2 (at 10 micromolar concentration), 10 micromolar concentration, values above 100% adjusted to 100%; for IC50: reported only as range 1-100 or 101-1200 nanomolar, specific value lies within range, read-out: IC50 within range [nanomolar (nM)].

On to `CC(Cc1nc2c(cnn2C2CCOC2)c(=O)[nH]1)C(F)(F)F` (mixture of isomers) [Example 72], for which the inhibition at 10 µM came to 91% and the IC50 lay within 101 to 1200 nM.

As to `CCC(Cc1nc2c(cnn2C2CCOC2)c(=O)[nH]1)C(F)(F)F` (mixture of isomers) [Example 77], the inhibition at 10 µM amounted to 89% and the IC50 fell in the range of 101 to 1200 nM.

Turning to `O=c1[nH]c(CC2CCOC2)nc2c1cnn2C1CCOC1` (mixture of isomers) [Example 81], the inhibition at 10 µM stood at 78% and the IC50 lay within 101 to 1200 nM.

As for `CCC(C)Cc1nc2c(cnn2C2CCOC2)c(=O)[nH]1` (mixture of isomers) [Example 84], the inhibition at 10 µM is 97% and the half-maximal inhibitory concentration (IC50) is 1 to 100 nM.

For the molecule `CCC(C)Cc1nc2c(cnn2C2CCCOC2)c(=O)[nH]1` (mixture of isomers) [Example 95], the inhibition at 10 µM was determined as 98% and the IC50 lay in the range of 1 to 100 nM.

On to `CCC(Cc1nc2c(cnn2C2CCCN(C(C)=O)C2)c(=O)[nH]1)C(F)(F)F` (mixture of isomers) [Example 173], for which the inhibition at 10 µM was 86% and the IC50 was 101 to 1200 nM.

Take `CCC(Cc1nc2c(cnn2C2CCCN(C(=O)c3ccccc3)C2)c(=O)[nH]1)C(F)(F)F` (mixture of isomers) [Example 174]: the inhibition at 10 µM came out at 89% and the IC50 was 101 to 1200 nM.

In the case of `CCC(Cc1nc2c(cnn2C2CCN(C)C2)c(=O)[nH]1)C(F)(F)F` (mixture of isomers) [Example 213], the inhibition at 10 µM was 86% and the IC50 fell in the range of 101 to 1200 nM.

Regarding `O=c1[nH]c(C(F)c2ccccc2)nc2c1cnn2C1CCOCC1` (racemic) [Example 12], the inhibition at 10 µM stood at 97% and the IC50 was 1 to 100 nM.

`CC(c1ccccc1)c1nc2c(cnn2C2CCOCC2)c(=O)[nH]1` (racemic) [Example 14]: the inhibition at 10 µM turned out to be 96% and the half-inhibitory concentration (IC50) lay within 101 to 1200 nM.

As to `CC(C)(C)OC(=O)N1CCC(n2ncc3c(=O)[nH]c(Cc4ccccc4)nc32)C1` (racemic) [Example 15], the inhibition at 10 µM came out at 92% and the IC50 lay in the range of 101 to 1200 nM.

For `CC(C)(C)OC(=O)N1CCC(n2ncc3c(=O)[nH]c(CC4CCC4)nc32)C1` (racemic) [Example 16], the inhibition at 10 µM was 86% and the half-maximal inhibitory concentration (IC50) fell in the range of 101 to 1200 nM.

`CC(C)(C)OC(=O)N1CCCC(n2ncc3c(=O)[nH]c(CC4CCCC4)nc32)C1` (racemic) [Example 17]: the inhibition at 10 µM is 100% and the IC50 was in the range of 1 to 100 nM.

As for `CC(C)(C)OC(=O)N1CCCC(n2ncc3c(=O)[nH]c(Cc4ccccc4)nc32)C1` (racemic) [Example 18], the inhibition at 10 µM was 99% and the IC50 was in the range of 1 to 100 nM.

For `CC(C)(C)OC(=O)N1CCCC(n2ncc3c(=O)[nH]c(Cc4ccccc4OC(F)(F)F)nc32)C1` (racemic) [Example 19], the inhibition at 10 µM amounted to 99% and the 50% inhibitory concentration (IC50) was 1 to 100 nM.

In the case of `CC(C)(C)OC(=O)N1CCCC(n2ncc3c(=O)[nH]c(Cc4ccccn4)nc32)C1` (racemic) [Example 20], the inhibition at 10 µM was 98% and the concentration for half-maximal inhibition (IC50) was in the range of 1 to 100 nM.

For the molecule `CCC(Cc1nc2c(cnn2C2CCCN(C(=O)OC(C)(C)C)C2)c(=O)[nH]1)C(F)(F)F` (racemic) [Example 21], the inhibition at 10 µM stood at 97% and the half-inhibitory concentration (IC50) is 101 to 1200 nM.

Regarding `CC(C)(C)OC(=O)N1CCCC(n2ncc3c(=O)[nH]c(Cc4cccc(C(F)(F)F)c4)nc32)C1` (racemic) [Example 22], the inhibition at 10 µM was 98% and the 50% inhibitory concentration (IC50) was in the range of 1 to 100 nM.

For `CC(C)(C)OC(=O)N1CCCC(n2ncc3c(=O)[nH]c(Cc4ccccc4F)nc32)C1` (racemic) [Example 23], the inhibition at 10 µM was determined as 99% and the IC50 was 1 to 100 nM.

Turning to `CCOc1ccccc1Cc1nc2c(cnn2C2CCCN(C(=O)OC(C)(C)C)C2)c(=O)[nH]1` (racemic) [Example 30], the inhibition at 10 µM came out at 100% and the IC50 is 1 to 100 nM.

For the molecule `CC(C)Cc1nc2c(cnn2C2CCCN(C(=O)OC(C)(C)C)C2)c(=O)[nH]1` (racemic) [Example 31], the inhibition at 10 µM is 98% and the half-maximal inhibitory concentration (IC50) lay in the range of 1 to 100 nM.

For `CC(C)(C)OC(=O)N1CCCC(n2ncc3c(=O)[nH]c(CC4CCC4)nc32)C1` (racemic) [Example 32], the inhibition at 10 µM stood at 100% and the IC50 was 1 to 100 nM.

Regarding `COc1ccc(C2CCCCC2Cc2nc3c(cnn3C3CCOCC3)c(=O)[nH]2)cn1` (racemic) [Example 40-4], the inhibition at 10 µM was determined as 92% and the IC50 lay within 101 to 1200 nM.

Consider `O=c1[nH]c(CC2CCCO2)nc2c1cnn2C1CCOCC1` (racemic) [Example 42], for which the inhibition at 10 µM was determined as 92% and the IC50 lay in the range of 101 to 1200 nM.

`CC(Cc1nc2c(cnn2C2CCOCC2)c(=O)[nH]1)C(F)(F)F` (racemic) [Example 46]: the inhibition at 10 µM is 100% and the IC50 was in the range of 1 to 100 nM.

For the molecule `CCC(Cc1nc2c(cnn2C2CCOCC2)c(=O)[nH]1)C(F)(F)F` (racemic) [Example 48], the inhibition at 10 µM was found to be 96% and the IC50 lay in the range of 1 to 100 nM.

As for `O=c1[nH]c(CC2CCCC2)nc2c1cnn2C1CCOC1` (racemic) [Example 69], the inhibition at 10 µM was 99% and the concentration for half-maximal inhibition (IC50) is 1 to 100 nM.

For `O=c1[nH]c(Cc2ccccc2OC(F)(F)F)nc2c1cnn2C1CCOC1` (racemic) [Example 70], the inhibition at 10 µM turned out to be 99% and the concentration for half-maximal inhibition (IC50) lay in the range of 1 to 100 nM.

On to `O=c1[nH]c(Cc2ccc(F)c(Cl)c2)nc2c1cnn2C1CCOC1` (racemic) [Example 71], for which the inhibition at 10 µM is 99% and the concentration for half-maximal inhibition (IC50) was in the range of 1 to 100 nM.

`O=c1[nH]c(CC2CCC2)nc2c1cnn2C1CCOC1` (racemic) [Example 73]: the inhibition at 10 µM came out at 97% and the IC50 fell in the range of 1 to 100 nM.

Consider `CC(C)Cc1nc2c(cnn2C2CCOC2)c(=O)[nH]1` (racemic) [Example 74], for which the inhibition at 10 µM worked out at 95% and the concentration for half-maximal inhibition (IC50) was in the range of 1 to 100 nM.

For `O=c1[nH]c(CC2CCCCC2)nc2c1cnn2C1CCOC1` (racemic) [Example 75], the inhibition at 10 µM was 98% and the IC50 is 1 to 100 nM.

As for `CCC(CC)Cc1nc2c(cnn2C2CCOC2)c(=O)[nH]1` (racemic) [Example 76], the inhibition at 10 µM came out at 98% and the IC50 is 1 to 100 nM.

Take `O=c1[nH]c(Cc2cccnc2)nc2c1cnn2C1CCOC1` (racemic) [Example 78]: the inhibition at 10 µM came to 99% and the IC50 was 101 to 1200 nM.

For the molecule `O=c1[nH]c(Cc2ccc(F)cc2)nc2c1cnn2C1CCOC1` (racemic) [Example 79], the inhibition at 10 µM turned out to be 99% and the concentration for half-maximal inhibition (IC50) fell in the range of 1 to 100 nM.

Regarding `O=c1[nH]c(CC2CC2)nc2c1cnn2C1CCOC1` (racemic) [Example 80], the inhibition at 10 µM turned out to be 94% and the IC50 was 1 to 100 nM.

For the molecule `CCOc1ccccc1Cc1nc2c(cnn2C2CCOC2)c(=O)[nH]1` (racemic) [Example 82], the inhibition at 10 µM turned out to be 100% and the half-maximal inhibitory concentration (IC50) was 1 to 100 nM.

In the case of `COc1ccccc1Cc1nc2c(cnn2C2CCOC2)c(=O)[nH]1` (racemic) [Example 83], the inhibition at 10 µM amounted to 96% and the half-inhibitory concentration (IC50) was 1 to 100 nM.

Regarding `O=c1[nH]c(Cc2cccc(C(F)(F)F)c2)nc2c1cnn2C1CCOC1` (racemic) [Example 85], the inhibition at 10 µM was determined as 99% and the IC50 fell in the range of 1 to 100 nM.

As for `O=c1[nH]c(Cc2ccccc2C(F)(F)F)nc2c1cnn2C1CCOC1` (racemic) [Example 86], the inhibition at 10 µM was determined as 95% and the half-maximal inhibitory concentration (IC50) lay in the range of 101 to 1200 nM.

On to `Cc1cccnc1Cc1nc2c(cnn2C2CCOC2)c(=O)[nH]1` (racemic) [Example 87], for which the inhibition at 10 µM was 86% and the half-inhibitory concentration (IC50) is 101 to 1200 nM.

As for `N#Cc1ccccc1Cc1nc2c(cnn2C2CCOC2)c(=O)[nH]1` (racemic) [Example 88], the inhibition at 10 µM was 96% and the 50% inhibitory concentration (IC50) is 1 to 100 nM.

Consider `N#Cc1cccc(Cc2nc3c(cnn3C3CCOC3)c(=O)[nH]2)c1` (racemic) [Example 89], for which the inhibition at 10 µM turned out to be 95% and the IC50 fell in the range of 101 to 1200 nM.

In the case of `O=c1[nH]c(CC2CCCC2)nc2c1cnn2C1CCCOC1` (racemic) [Example 90], the inhibition at 10 µM was determined as 100% and the concentration for half-maximal inhibition (IC50) lay in the range of 1 to 100 nM.

With `O=c1[nH]c(Cc2ccccc2OC(F)(F)F)nc2c1cnn2C1CCCOC1` (racemic) [Example 91], the inhibition at 10 µM stood at 99% and the IC50 was 1 to 100 nM.

With `CC(C)Cc1nc2c(cnn2C2CCCOC2)c(=O)[nH]1` (racemic) [Example 92], the inhibition at 10 µM amounted to 98% and the IC50 lay within 1 to 100 nM.

In the case of `CCOc1ccccc1Cc1nc2c(cnn2C2CCCOC2)c(=O)[nH]1` (racemic) [Example 93], the inhibition at 10 µM was 97% and the IC50 was 1 to 100 nM.

In the case of `O=c1[nH]c(Cc2ccccn2)nc2c1cnn2C1CCCOC1` (racemic) [Example 94], the inhibition at 10 µM was 96% and the IC50 fell in the range of 101 to 1200 nM.

With `O=c1[nH]c(CC2CCC2)nc2c1cnn2C1CCCOC1` (racemic) [Example 96], the inhibition at 10 µM is 99% and the 50% inhibitory concentration (IC50) lay within 1 to 100 nM.

Consider `O=c1[nH]c(Cc2ccccc2C(F)(F)F)nc2c1cnn2C1CCCOC1` (racemic) [Example 97], for which the inhibition at 10 µM worked out at 98% and the half-maximal inhibitory concentration (IC50) was 1 to 100 nM.

On to `N#Cc1cccc(Cc2nc3c(cnn3C3CCCOC3)c(=O)[nH]2)c1` (racemic) [Example 98], for which the inhibition at 10 µM was 97% and the concentration for half-maximal inhibition (IC50) is 1 to 100 nM.

In the case of `O=c1[nH]c(CC2CC2)nc2c1cnn2C1CCCOC1` (racemic) [Example 99], the inhibition at 10 µM was found to be 96% and the IC50 was 1 to 100 nM.

Turning to `Cc1cccnc1Cc1nc2c(cnn2C2CCCOC2)c(=O)[nH]1` (racemic) [Example 100], the inhibition at 10 µM came to 93% and the IC50 is 101 to 1200 nM.

For `O=c1[nH]c(Cc2ccc(F)cc2)nc2c1cnn2C1CCCOC1` (racemic) [Example 101], the inhibition at 10 µM came to 98% and the half-inhibitory concentration (IC50) was 1 to 100 nM.
